In US12729458B2, “Discovery and evolution of biologically active metabolites” (The Regents of the University of Colorado, a Body Corporate, priority 2020, dated 2026):
Like-named read-outs stand apart in the source and are kept apart here.

Tests used:
PTP1B (PTP1B1-321) = molecular target: T1, PTP1B (PTP1B1-321) (Homo sapiens, UniProt P18031); test: PTP1B-catalyzed hydrolysis of pNPP in the presence of terpenoids (enzyme kinetics, IC50 from best-fit models); format: biochemical, H. sapiens; conditions: for IC50: 15 mM pNPP, 10% DMSO; for Ki: PTP1B1-321
T1 construct: His-tag; made in house; host or cells: E. coli BL21 (DE3), pET21b
T1 sequence (P18031 1-321): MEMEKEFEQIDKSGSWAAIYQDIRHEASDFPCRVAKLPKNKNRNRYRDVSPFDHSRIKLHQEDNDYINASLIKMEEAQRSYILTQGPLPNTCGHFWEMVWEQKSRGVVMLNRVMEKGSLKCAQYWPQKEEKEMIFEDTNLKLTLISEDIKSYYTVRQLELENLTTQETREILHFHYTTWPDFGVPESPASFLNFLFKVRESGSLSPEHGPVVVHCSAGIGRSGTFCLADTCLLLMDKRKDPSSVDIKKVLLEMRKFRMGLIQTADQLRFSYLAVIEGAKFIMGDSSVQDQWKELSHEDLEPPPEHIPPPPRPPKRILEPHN
Description: Enzyme kinetics. To examine terpenoid-mediated inhibition, PTP1B-catalyzed hydrolysis of p-nitrophenyl phosphate (pNPP) was measured in the presence of various concentrations of terpenoids. Each reaction included PTP1B ([…]), pNPP (0.33, 0.67, 2, 5, 10, and 15 mM), inhibitors (110 μM, 50 μM, and 15 μM for amorphadiene; 100 μM, 50 μM, and 16.7 μM for taxadiene), and buffer (50 mM HEPES pH=7.5, 0.5 mM TCEP, 50 μg/ml BSA, 10% DMSO). The formation of p-nitrophenol was monitored by measuring absorbance at 405 nm every 10 seconds for 5 minutes on a Spectramax M2 plate reader.
Kinetic models were evaluated in three steps: (i) Initial-rate measurements collected in the absence and presence of inhibitors were fitted to Michaelis-Menten and inhibition models, respectively (here, the nlinfit and fminsearch functions from MATLAB were used). (ii) An F-test was used to compare the mixed model to the single-parameter model with the least sum squared error (here, the fcdf function from MATLAB was used to assign p-values), and the mixed model was accepted when p<0.05.
The MATLAB function “nlparci” was used to determine the confidence intervals of kinetic parameters, and those intervals were propagated to estimate corresponding confidence on IC50's.
Enzyme kinetics. To examine terpenoid-mediated inhibition, we measured PTP-catalyzed hydrolysis of p-nitrophenyl phosphate (pNPP) or 4-methylumbelliferyl phosphate (4-MUP, used when KM for pNPP was large) in the presence of various concentrations of terpenoids. Each reaction included PTP (0.05 μM PTP1B/TCPTP or 0.1 μM SHP1/SHP2 in 50 mM HEPES, 0.5 mM TCEP, 50 μg/ml BSA), pNPP (0.33, 0.67, 2, 5, 10, and 15 mM) or 4-MUP (0.13, 0.27, 0.8, 2.27, 2.93, 4.53, 7.07, and 8 mM), inhibitor (with concentrations listed in the figures), buffer (50 mM HEPES pH=7.3, 50 μg/ml BSA), and DMSO at 10% v/v. We monitored the formation of p-nitrophenol by measuring absorbance at 405 nm every 10 seconds for 5 minutes on a SpectraMax M2 plate reader and the formation of 4-methylumbelliferyl by measuring fluorescence at 450 nm (370 nm ex, 435 nm cutoff, medium gain).
We used a custom MATLAB script to process all raw kinetic data. This script removed all concentration values that fell outside of either (i) the range of our standard curve (absorbance/fluorescence vs. μM; FIG. 39) or (ii) the initial rate regime (>10% of the pNPP or 4-MUP concentration used in the assay). When this step reduced kinetic dataset to fewer than ten points, we re-measured those datasets to collect at least ten. We fit final datasets, in turn, with a linear regression model (using Matlab's backslash operator).
We evaluated kinetic models in three steps: (i) We fit initial-rate measurements collected in the absence and presence of inhibitors to Michaelis-Menten and inhibition models, respectively (here, we used the nlinfit and fminsearch functions from MATLAB; TABLE 12). (ii) We used an F-test to compare the mixed model to the single-parameter model with the least sum squared error (here, we used the fedf function from MATLAB to assign p-values), and we accepted the mixed model when p<0.05.

[1] = system: insulin receptor (IR) phosphorylation (PTP1B-mediated) in HEK293T/17 cells; test: ELISA of insulin receptor (IR) phosphorylation in HEK293T/17 cells; format: cell-based; conditions: 3% DMSO, 10 minutes, starved HEK293T/17 cells, vs 3% DMSO control
Text: Analysis of PTP1B inhibition in HEK293TCells. We prepared HEK293T/17 cells for an enzyme-linked immunosorbent assay (ELISA) by growing them in 75 cm^2 culture flasks (Corning) with DMEM media supplemented with 10% FBS, 100 units/ml penicillin, and 100 units/ml streptomycin. We replaced the media every day for 3-5 days until the cells reached 80-100% confluency.
We measured the influence of inhibitors on insulin receptor (IR) phosphorylation by using an IR-specific ELISA (FIG. 35). Briefly, we starved cells for 48 hours in FBS-free media and incubated the with inhibitors (all at 3% DMSO) for 10 minutes. After incubation, we lysed cells with lysis buffer (9803, Cell Signaling Technology) supplemented with 1× halt phosphatase inhibitor cocktail and 1× halt protease inhibitor cocktail (Thermo Fisher Scientific) for 10 min, pelleted the cell debris, and used the lysis buffer to dilute each sample to 60 mg/ml total protein. We measured IR phosphorylation in subsequent dilutions of the 60 mg/ml samples with the PathScan® Phospho-Insulin Receptor β (panTyr) Sandwich ELISA Kit (Cell Signaling Technology; #7082).
Statistical analysis and reproducibility. We determined statistical significance (FIG. 23H) with a two-tailed Student's t-test (details in TABLE 14), and we used an F-test to compare one- and two-parameter models of inhibition (TABLE 12).

PTP1B = molecular target: T2, PTP1B (Homo sapiens, UniProt P18031); test: X-ray crystallography of PTP1B soaked with ligand; format: binding, H. sapiens
T2 construct: In this study, we used a well-studied truncation variant (i.e., PTP1B1-321); His-tag; made in house; host or cells: E. coli BL21 (DE3), pET21b
T2 sequence (P18031 1-321): T1 sequence (P18031 1-321)
Description: X-ray crystallography. We prepared crystals of PTP1B by using hanging drop vapor diffusion. In brief, we added 2 μL of PTP1B (~600 μM PTP1B, 50 mM HEPES, pH 7.3) to 6 μL of crystallization solution (100 mM HEPES, 200 mM magnesium acetate, and 14% polyethylene glycol 8000, pH 7.5) and incubated the resulting droplets over crystallization solution for one week at 4° C. (EasyXtal CrystalSupport, Qiagen). We soaked crystals with ligand by transferring them to droplets formed with 6 μL of crystallization solution and 1 μL of ligand solution (10 mM in DMSO), which we incubated for 2-5 days at 4° C. We prepared all […] for freezing by soaking them in cryoprotectant formed from a 70/30 (v/v) mixture of buffer (100 mM HEPES, 200 mM magnesium acetate, and 25% polyethylene glycol 8000, pH 7.5) and glycerol.
We collected X-ray diffraction data through the Collaborative Crystallography Program at Lawrence Berkeley National Lab (ALS ENABLE, beamline 8.2.1, 100 K, 1.00003 Å). We performed integration, scaling, and merging of X-ray diffraction data using the xia2 software package^79, and we carried out molecular replacement and structure refinement with the PHENIX graphical interface,^80 supplemented with manual model adjustment in COOT^81 and one round of PDB-REDO^82 (the latter, only for the PTP1B-AD complex).

[2] = competitive model of inhibition, read-out: Fit par. Ki, competitive model
[3] = mixed model, uncompetitive constant, read-out: Fit par. Ki,u, mixed model
[4] = noncompetitive model of inhibition, read-out: Fit par. Ki, noncompetitive model
[5] = uncompetitive model of inhibition, read-out: Fit par. Ki, uncompetitive model

| IC50 (PTP1B (PTP1B1-321); Example 2, HEPES pH 7.3, ± 95% confidence interval) | Ki (PTP1B (PTP1B1-321); [2]) | Ki (PTP1B (PTP1B1-321); mixed model, competitive constant, read-out: Fit par. Ki,c, mixed model) | Ki (PTP1B (PTP1B1-321); [3]) | Ki (PTP1B (PTP1B1-321); [4]) | Ki (PTP1B (PTP1B1-321); [5]) | solubility (crystal soaking experiments) (PTP1B) | Structure (SMILES) | IC50 (PTP1B (PTP1B1-321); Example 1, HEPES pH 7.5) | model (mode) of PTP1B inhibition from Michaelis-Menten fits (PTP1B (PTP1B1-321); pNPP initial rates) | IR phosphorylation (ELISA signal) ([1]; 405 μM) | IR phosphorylation (ELISA signal) ([1]; 405 μM, listed as ABOL) | IR phosphorylation (ELISA signal) ([1]; 930 μM) | IR phosphorylation (ELISA signal) ([1]; 930 μM, listed as DHA) |
| --- | --- | --- | --- | --- | --- | --- | --- | --- | --- | --- | --- | --- | --- |
| 165 ± 33 µM | 14.8 µM | 5690 µM | 169 µM | 190 µM | 168 µM |  | CC1=C[C@@H]2C(=C(C)CC[C@H]2C(C)C)CC1 [(+)-1 (10),4-cadinadiene] |  |  |  |  |  |  |
|  |  |  |  |  |  |  | CC1=CCC[C@@]2(C)CCC3=C(C)CC[C@@H](C[C@H]12)C3(C)C [taxadiene] | 119 µM | mixed inhibition |  |  |  |  |
|  | 178 µM |  | 469 µM | 541 µM | 469 µM | soluble | CC(C)=CCC[C@](C)(O)[C@@H]1CC=C(C)CC1 [α-bisabolol, reference compound] |  |  | reduction in signal | reduced signals |  |  |
|  | 178 µM |  | 469 µM | 541 µM | 469 µM |  | CC1=C[C@H]2[C@@H](CC1)[C@H](C)CC[C@H]2[C@@H](C)C(=O)O [dihydroartemisinic acid, reference compound] |  |  |  |  | reduction in signal | reduced signals |
